Tests used:
[1] = tested on: patients with untreated locally advanced or metastatic urothelial carcinoma; assay: Phase III IMvigor130 study: overall survival, atezolizumab monotherapy (Arm B) vs placebo + platinum-based chemotherapy (Arm C); assay type: in vivo, human; conditions: 1L mUC, May 31, 2019 cutoff
Source text: This Example describes the IMvigor130 study, which is a Phase III, multicenter, randomized, placebo-controlled, partially blind study designed to evaluate the efficacy of atezolizumab given as monotherapy or in combination with platinum-based chemotherapy versus placebo in combination with platinum-based chemotherapy in patients with locally advanced or metastatic urothelial carcinoma who have not received prior systemic therapy.
The primary efficacy objective for this study is to evaluate the efficacy of atezolizumab plus platinum-based chemotherapy compared with placebo plus platinum-based chemotherapy on the basis of the following endpoints: • Co-primary endpoints of progression-free survival (PFS) and overall survival (OS) • PFS is defined as the time from randomization to the first documented disease progression as determined by the investigator with use of RECIST v1.1, or death due to any cause, whichever occurs first. • OS is defined as the time from randomization to death due to any cause. […]
Randomization was stratified by the following factors: • PD-L1 status (IC0 (<1%) vs. IC1 (≥1% and <5%) vs. IC2/3 (≥5%)). • Bajorin model risk factor score/liver metastasis (0 vs. 1 vs. 2 or patients with liver metastasis). • Investigator-determined chemotherapy (gemcitabine and carboplatin vs. gemcitabine and cisplatin). […]

[2] = tested on: patients with metastatic urothelial carcinoma (mUC); assay: Post hoc analysis of IMvigor130 biomarker-evaluable population: PD-L1 IHC assays (SP142, 22C3) and OS; assay type: in vivo, human
Source text: Clinically relevant biomarkers are needed to predict outcomes with immunotherapy in metastatic urothelial carcinoma (mUC). Different PD-L1 assays use various methods (e.g., scoring tumor and/or immune cells) to evaluate anti-PD-L1/PD-1 outcomes. […] Thus, it was hypothesized that the SP142 and 22C3 assays may be differentially associated with OS in IMvigor130 patients, which may be related to PD-L1 localization on specific immune cells such as dendritic cells (DCs). This Example describes a post hoc analysis that studied associations between two PD-L1 IHC assays (i.e., VENTANA SP142 and Dako 22C3) and OS in the biomarker-evaluable population of the IMvigor130 study.
The biomarker-evaluable population in this analysis consisted of patients with archival tumors in Arms B and C (Jun. 14, 2020 cutoff) (Galsky et al. Cancer Res. 81 (13_Supplement): CT042, 2021). Formalin-fixed paraffin-embedded (FFPE) tumor specimens from eligible IMvigor130 study patients were prospectively tested for PD-L1 IHC expression by a central laboratory prior to randomization (see, Example 1 for additional information). The IHC scores had three categories (IC0, IC1, IC2/3). The study enrolled all eligible patients whose tissue is evaluable for expression testing, regardless of PD-L1 expression status.
PD-L1 expression was evaluated by IHC (CellCarta) using the SP142 (Ventana) and 22C3 (Dako) assays in 322 patients treated with atezolizumab monotherapy (Arm B) and 305 patients treated with placebo+platinum-based chemotherapy (Arm C). Samples were also stained for IC subtypes. Assay cutoffs for the SP142 assay were IC ≥5% (IC2/3) and <5% (IC0/1). For the 22C3 assay, cutoffs were CPS ≥10 and <10.
A subset of tumor samples were also stained by IHC for the dendritic cell marker DC-LAMP (Clone 1010E1.01, Novus Biologicals). In silico deconvolution by xCell (Aran et al. Genome Biol. 18 (1): 220, 2017) was performed. Statistical analysis was performed to compare OS between subgroups using the stratified log-rank test.

[3] = patients receiving atezolizumab monotherapy, biomarker-evaluable population, Jun. 14, 2020 cutoff
[4] = untreated locally advanced or metastatic UC

“atezolizumab: Fc-engineered, humanized, non-glycosylated IgG1 kappa immunoglobulin that binds PD-L1; heavy chain SEQ ID NO: 1, light chain SEQ ID NO: 2” was tested, and the “overall survival (OS) HR, atezolizumab monotherapy (Arm B) versus placebo+platinum-based chemotherapy (Arm C)” value ([1]; PD-L1 IC2/3 by SP142 IHC assay) was 0.68, the “overall survival (OS) HR, atezolizumab monotherapy (Arm B) versus placebo+platinum-based chemotherapy (Arm C)” value ([1]; PD-L1 IC2/3 cisplatin ineligible) was 0.53 and the “OS HR by 22C3 CPS scoring (CPS ≥10 versus CPS <10)” value [2, 3] was 0.83 (0.63, 1.10). The “OS HR by SP142 scoring (IC2/3 versus IC0/1)” value [2, 3] was 0.55 (0.39, 0.77), the “OS in SP142 IC2/3 versus IC0/1 tumours” value ([2]; patients with mUC) was “longer OS” and the “OS by combined tumor status SP142 IC0/1 + 22C3 CPS ≥10” value [2, 4] was “shorter OS”. For the same substance, the “OS by combined tumor status SP142 IC2/3 + 22C3 CPS ≥10 (double positive)” value [2, 4] was “longer OS”.

Reference: patent publication US20250257134A1, “THERAPEUTIC AND DIAGNOSTIC METHODS FOR BLADDER CANCER” (Genentech, Inc., priority 2022, published 2025)
